Consider 1 compound from patent US20090312373A1, “METHODS FOR THE TREATMENT OF CANCER USING PIPERLONGUMINE AND PIPERLONGUMINE ANALOGS” (The General Hospital Corporation, priority 2008, published 2009).

The structures appear in SMILES notation.

Data set [1] deals with mouse B16-F10 melanoma cells. Description: B16-F10 mouse melanoma in B6 wild type mice. In kind it is in vivo. The settings on record: 28 ug i.p. every 48 hours for 12 days (total 1.2 mg/kg); compared to DMSO. As for the experimental part:
We tested the effectiveness of piperlongumine in wild type mice using mouse B16-F10 melanoma cells. A total 2×10^6 cells were implanted subcutaneously on opposite site flanks in each of 12 B6 wild type mice in each group. When tumor masses grew to ˜5-10 mm in diameter, piperlongumine was administered intraperitoneally (28 ug per each intraperitoneal administration, total 1.2 mg/kg) every 48 hours for 12 days (6 times total).

A further data set deals with human cancer cell lines. Description: Cell growth inhibition and cell death/apoptosis in a panel of human cancer cell lines. In kind it is cell-based. An excerpt: We evaluated the ability of piperlongumine to induce apoptosis in a panel of human cancer cells (>40 human cancer cell lines) including cell lines with both wt and mutant p53 status, including non-functional mutants (See Table 1).

The test system of data set [2] is drug-resistant A549 lung cancer cell lines. Description: Tumor cell killing in drug-resistant A549 lung cancer cell lines. The format is cell-based, human. Here is the method:
The tumor growth inhibitory effect of piperlongumine was evaluated in a variety of human cancer cell lines. Cells were grown in ˜50-70% confluency and treated with piperlongumine and known anti-cancer agents at various concentrations (0.1-30 μM) and analyzed for cell death or viability by SRB (Sulforhodamine B) staining assay. The SRB assay is a well established assay that is used for the detection of cell death, viability or proliferation in drug screening.
Tumor cell killing by piperlongumine was also tested in drug-resistant A549 lung cancer cell lines and compared to known anti-cancer agents (see FIG. 19).

The subject of data set [3] is immortalized human breast epithelial cells. Description: DNA damage markers in immortalized human breast epithelial cells. In kind it is cell-based. The settings on record: taxol 10 nM. An excerpt: (§1) The conditions and time of exposure are indicated in the legend of the figure.
Data set [4] deals with diploid fibroblasts, keratinocytes and breast epithelial cells. Description: Cell death in non-transformed control cells. The format is cell-based.
In data set [5] the test system is EJ bladder carcinoma and U2OS osteosarcoma cell lines. The data set can be described thus: DNA damage in EJ bladder carcinoma and U2OS osteosarcoma cell lines. The format is cell-based, human.
Excerpt: as §1

The next data set has as its system CDIP. Description: Western blot of CDIP expression in U2OS cells containing wt-p53. The format is cell-based, human. To be noted: 5 μM and 10 μM. As for the experimental part:
Western blot analyses of CDIP expression in human cancer cells containing wt-p53 treated with piperlongumine (SP2007) (5 μM and 10 μM) is shown in FIG. 38. Beta-actin expression was used as a loading control.

Another data set deals with breast cancer tumors. The data set can be described thus: Breast tumor in mice. The format is in vivo, mouse. As for the experimental part: We tested piperlongumine in colon tumor, breast, melanoma or bladder tumor xenograft-bearing mice to evaluate the anti-tumor effect of piperlongumine. We examined EJ human bladder cancer cell xenografts (non-functional p53) to evaluate anti-tumor effects. A total of 2×10^6 EJ cells or SW480 cells were implanted subcutaneously on opposite site flanks in each of six nude/nude mice in each group. When tumor masses grew to ˜5-10 mm in diameter, piperlongumine was administered intraperitoneally (28 ug per each intraperitoneal administration, total 1.2 mg/kg) every 48 hours for 12 days (6 times total).

For another data set, the system named is MMTV-PyVT mammary tumor. The data set can be described thus: MMTV-PyVT spontaneous mammary tumor mouse model. The format is in vivo. An excerpt:
MMTV-PvVT (FVB/N-Tg) transgenic mice develop multifocal mammary tumor (from hyperplasia to metastatic) with a high incidence of metastasis (Mice were obtained from the NCI repository). This mouse model has been widely used for the correlation studies of human cancer (Guy et al., Moll. Cell. Biol. 12: 954-961, 1992). In addition, this onco-mouse model has been used to evaluate the effectiveness of potential drug therapies. Generally, due to aggressiveness of tumor growth and spread in this mouse-model, only a combination of chemo-drugs is effective in tumor growth inhibition. MMTV-PyVT mice were maintained until mammary tumor size reached to 6 mm, and then piperlongumine (2.4 mg/kg) or vehicle (DMSO) was given daily by i.p. for 13 days. Tumor size was measured every 4 days (See FIGS. 31 and 32).
We compared the anti-tumor activity of piperlongumine (SP2007) with taxol, a well known chemo drug, in the MMTV-PyVT tumor mouse model as described above (8 mice per group). When tumor sizes grew to ˜5-6 mm in diameter, SP2007 (2.4 mg/kg/day) or Taxol (Paclitaxel, 10 mg/kg/day) was administered intraperitoneally (I.P.) daily for two weeks. After two weeks treatment, mice were sacrificed, and mammary tumors excised and the tumor sizes measured. […] The size of the grossly dissected tumors was measured using the formula: mean diameter=(A+B)/2.

Another data set relates to lung cancer tumors. The data set can be described thus: Lung tumor model in mice. In kind it is in vivo, mouse.
Another data set concerns Twist. The data set can be described thus: Twist expression in U2OS and EJ cells. To be noted: 10 μM, 6 and 12 hours. The format is cell-based, human. Here is the method: U2OS cells and EJ cells were exposed to piperlongumine (10 μM) and aliquots of the cells were taken at 6 and 12 hours and lysed to determine the level of Twist expression. […] HCT116 cells (p53-wt cells) were exposed to piperlongumine and aliquots of the cells were taken at 6 and 12 hours and lysed to determine the level of CDIP expression. […] U2OS cells (p53-wt cells) and EJ cells (non-functional p53) were exposed to various concentrations of piperlongumine (piper) and aliquots of the cells were lysed to determine the level of survival protein expression.

The test system of data set [6] is CDIP promoter containing p53 binding site. The data set can be described thus: CDIP promoter/p53 responsive site luciferase reporter screen. In kind it is cell-based, human. The text has this: We screened a small molecule library of biologically active compounds using a Luciferase reporter gene construct fused with CDIP (Cell Death Involved p53 target) promoter/p53 responsive site as a read-out assay. p53 transcriptional activators were identified from screening the diversity set of the biologically active library using U2OS human cancer cells expressing the p53-responsive reporter. Briefly, a reporter construct was created that included the CDIP promoter operatively linked to the luc2 luciferase reporter gene. We stably expressed a human p53 reporter, luciferase2/Puro+CDIP promoter, which carries the firefly luciferase gene under the control of p53-responsive elements of CDIP promoter, in U2OS cells. Stable cell lines were produced that expressed the reporter construct, and the cells were plated in 384 well plates at ˜10,000 cells per well. Test compounds were added to the plated cells at two replicates per compound, and the cells were incubated with the compounds for 24 hours. The data were analyzed using Spotfire. The initial screen identified several compounds that activated p53-responsive reporter expression during 48 hours.

A short description of data set [7]: Long-term piperlongumine treatment toxicity in mice. The format is in vivo, mouse. To be noted: 2.4 mg/kg injected multiple times for 4 weeks. As for the experimental part:
Piperlongumine (2.4 mg/kg) was injected into mice (8 mice per group) multiple times for 4 weeks. […] After 4 weeks the mice were killed and examined for changes in gross histology in target organs.

[8] abbreviates: 2.4 mg/kg daily i.p. for 13 days.

In the case of `COc1cc(/C=C/C(=O)N2CCC=CC2=O)cc(OC)c1OC` [piperlongumine, N-(3,4,5,-trimethoxycinnamoyl)-Δ^3-piperidine-2-one], the anti-tumor effect result in data set [1] was “significant anti-tumor effects”. For the same compound, in the data set on human cancer cell lines (HCT116 cells), the “sub-G1 apoptotic population of cells” value was “increased”. In the data set with human cancer cell lines (various human cancer cells, regardless of p53 status), the “potencies for tumor cell growth inhibition and cell death/apoptosis” value fell in the range of 2.5 to 20 µM. In [2], the “tumor cell growth inhibition compared to other anti-cancer drugs” value is “more effective”. The “phosphorylated gamma-H2AX and p53” value in [3] is “does not result in the induction”. In data set [4], the “cell death/apoptosis in normal cells” value was “not in normal cells”. In addition, the “DNA damage (phosphorylated gamma-H2AX levels)” value in data set [5] is “results in the induction of DNA damage”. In addition, in the data set on CDIP, the CDIP expression result was “induces CDIP”. Further, in the data set on breast cancer tumors, the “killing of breast cancer tumors” value is recorded as “effective killing”. Also, in the data set with MMTV-PyVT mammary tumor (setting [8]), the “multiple tumor growth in spontaneous tumor model” value is given as “inhibits multiple tumor growth” and the “tumor growth in spontaneous mouse model of breast cancer” value is recorded as “inhibits tumor growth”. The “anti-tumor effect (mammary tumor size)” value with MMTV-PyVT mammary tumor (2.4 mg/kg/day i.p. daily for two weeks, compared to DMSO) is recorded as “Significant anti-tumor effects”. The “health of mice during treatment” value in the data set on MMTV-PyVT mammary tumor (SP2007 2.4 mg/kg/day i.p. for two weeks) is “remained healthy throughout the treatment time”. Besides, the secondary tumors entry with MMTV-PyVT mammary tumor (SP2007 2.4 mg/kg/day or Taxol 10 mg/kg/day i.p. for two weeks) was “No secondary tumors were observed”. Moreover, in the data set with lung cancer tumors, the “killing of lung cancer tumors” value is “effective killing”. Further, the Twist expression result with Twist is given as “inhibits the expression of Twist”. The “luciferase activity of the CDIP promoter containing p53 binding site” value in data set [6] (10 μM, U2OS cells) is given as “significantly increased”. Further, the “composite Z value in the screen” value in [6] (among natural compound candidates, U2OS reporter cells) is reported as “highest composite Z value”. For the same compound, the mortality entry in data set [7] is “None of the mice died”. Further, in data set [7] (hematoxilin and eosin staining), the “gross histology in kidney, liver and lung” value is given as “no change in gross histology”.
